Measurements published in patent US9029092B2, “Solution phase homogeneous assays” (Beckman Coulter, Inc., priority 2009, dated 2015).
Read-outs that look alike come from different tables or passages of the source.

System: Rabbit anti cAMP
Text: There are provided homogeneous immunoassays of an analyte utilizing a chemiluminescent-labeled capture antibody in combination with labeled analyte in a competitive immunoassay reaction. The example analyte cyclic-AMP (“cAMP”) is conjugated with HRP to provide a cAMP-HRP reagent, which competes for analyte cAMP at the capture antibody (“Capture Ab”) which is conjugated with AK5 to form a capture antibody-AK5 complex. […] Analyte (cAMP) which is not conjugated with HRP competes for the […], and upon addition of trigger solution the resulting capture antibody-AK5-cAMP complex provides no chemiluminescence (i.e., “No Light”). Accordingly, analyte cAMP competes for capture antibody-AK5 complex and thereby suppresses signal due to the capture antibody-AK1-cAMP-HRP complex.
Rabbit anti cAMP (IMMUNOTECH, Marseille) 0.1 mg (20.3 uL from 4.93 mg/mL stock) was added to 162 uL of 0.1 M sodium borate pH 8.25 buffer in 1.7 mL centrifuge tube. 17.6 ug of AK5 (17.6 ul from 1 mg/mL stock of DMF) was added. After quick vortex mixing tube was placed on a rotating shaker for 1 hour at room temperature. Reaction was quenched by adding 1.2 uL of L-lysine from 3 mg/mL stock. Reaction mixture was diluted (1:1) in 0.4% BSA and PBS and stored at 4 C. cAMP-HRP was prepared according to the literature. […] A 30 nM stock of cAMP was prepared in PBS and further diluted in PBS to make sample calibrators for the assay.
The competitive immunoassay protocol was as follows. AK5 labeled monoclonal Rabbit anti cAMP (0.275 ug/mL) (3 uL), HRP labeled cAMP (0.09375 ug/mL) (3 ul) and cAMP calibrators (4 ul) were added into a white polystyrene 384 low volume plate. Conjugate solutions were 0.2% in BSA. After incubation of 30 minutes at room temperature, 1 ul of 2-aminophenol (0.6875 mM) was added followed by a trigger solution (10 ul). The trigger solution contained 25 mM Tris pH 8, 8 mM p-hydroxycinnamic acid, 1 mM EDTA, 0.2% Tween-20 and 0.1 M ureaperoxide. Light intensity was measured (Spectromax) for one second immediately upon injection of trigger. Reactants were not exposed to light during incubation and were not shaken.

Nc1ncnc2c1ncn2[C@@H]1O[C@@H]2COP(=O)(O)O[C@H]2[C@H]1O [cAMP, cyclic-AMP]
Average (light intensity) (cAMP 0.412 nM): 83377 | Signal Suppression (cAMP 0.412 nM): 9% | Average (light intensity) (cAMP 3.7 nM): 31156 | Signal Suppression (cAMP 3.7 nM): 66% | Average (light intensity) (cAMP 33.3 nM): 943 | Signal Suppression (cAMP 33.3 nM): 99% | Average (light intensity) (cAMP 100 nM): 315 | Signal Suppression (cAMP 100 nM): 100% | Average (light intensity) (cAMP 1000 nM): 173 | Signal Suppression (cAMP 1000 nM): 100% | Average (light intensity) (cAMP 10000 nM): 167 | Signal Suppression (cAMP 10000 nM): 100% | IC50 (read-out: IC50 for cAMP, competition with cAMP-HRP at AK5-labeled antibody, 2-aminophenol as SSIA): 2.6 nM
